{
  "source": "patent US10925963B2",
  "about": "“Combination artemisinin and chemiluminescent photodynamic therapy and uses therefor” (Washington University, priority 2015, dated 2021)",
  "key": {"[1]": {"tested_on": "asynchronous 3D7 parasites", "assay": "Parasite growth of ALA-treated cultures with daily white-light exposure", "assay_type": "cell-based, Plasmodium falciparum", "description": "Parasite growth was monitored by diluting asynchronous parasites to 0.5% parasitemia and allowing culture expansion with daily or twice daily media changes. […] To assess the light sensitivity of ALA-treated parasites, asynchronous parasites were cultured in 200-500 μM ALA in the absence or presence of 50 μM succinylacetone and subjected to 2-5 minute daily exposures to broad wavelength white light on an overhead projector. Daily parasitemia measurements were plotted as a function of time and fit to an exponential growth equation using Graph Pad Prism 5.0 (Graph Pad Software, Inc., La Jolla, Calif.).\nTo test the effects of these changes on bulk parasite culture, the present inventors monitored the growth of untreated versus ALA-treated parasites over several days with 2-minute daily exposures to broad-wavelength white light on an overhead projector light box. FIG. 4 depicts growth of asynchronous 3D7 parasites in the presence or absence of 200 μM ALA and 50 μM succinylacetone (SA), with 2-minute exposures to white light on an overhead projector on days 0-2. Parasitemia (percentage of total erythrocytes infected with parasites) as a function of time was fit with an exponential growth equation."}, "[2]": {"tested_on": "heme biosynthesis enzymes in the erythrocyte cytoplasm", "assay": "LC-MS/MS detection of 13C-labelled PPIX and CPP from 13C-ALA in erythrocyte lysate supernatants", "assay_type": "biochemical", "conditions": "50 μM succinylacetone; 200 μM 5-[13C4]-ALA; saponin lysate supernatant, overnight 37° C.", "description": "Parasites were cultured in 200 μM 5-[^13C4]-ALA for 12-24 hours, harvested by centrifugation, lysed in 0.05% cold saponin, washed in PBS, and extracted with DMSO. Deuteroporphyrin was added as an internal standard, and extracts were analyzed for ^13C-labeled heme, PPIX, and CPPIII using a previously published liquid chromatography-multiple reaction monitoring tandem mass spectrometry assay (Ke, H. et al., J. Biol. Chem. 289, 34827-34837, 2014).\nTo assess the heme biosynthesis capacity of the erythrocyte cytoplasm, 500 μl packed red blood cells (described previously; Sigala, P. A., et al., J. Biol. Chem. 287, 37793-37807, 2012) were lysed in 20 ml of 0.04% saponin/PBS (0.2 μM filtered) and centrifuged at 25,000×g for 60 minutes to pellet unlysed cells and any organelles. The superficial 15 ml of the lysate supernatant was removed and 0.2 μM filtered, supplemented with 200 μM 5-[^13C4]-ALA in the absence or presence of 50 μM succinylacetone, incubated overnight at 37° C., and analyzed by tandem mass spectrometry as described above.\nIn these investigations, red porphyrin fluorescence in ALA-treated intraerythrocytic parasites was not limited to the parasitophorous vacuole but was detectable throughout the erythrocyte cytoplasm (FIG. 3A), as expected for host enzyme activity in this compartment and production of PPIX. […]"}, "[3]": {"tested_on": "3D7 (drug sensitive) parasites", "assay": "Chemiluminescence-based photodynamic therapy (CL-PDT) parasite growth", "assay_type": "cell-based, Plasmodium falciparum", "conditions": "50 μM succinylacetone", "description": "Parasitemia was measured daily as indicated above.\nThe present inventors tested whether intraerythrocytic parasites might be uniquely susceptible to chemiluminescence-based photodynamic therapy (CL-PDT) (FIG. 9A). Artemisinin and its derivatives are current frontline drugs used for treatment of malaria, usually in combination with a partner drug. To test the efficacy of an artemisinin CL-PDT strategy for treatment of blood-stage malaria, we incubated intraerythrocytic parasites in 50-100 μM ALA with or without luminol and sub-therapeutic doses (≤10% of EC50) of dihyroartemisinin (DHA), with twice-daily media changes."}, "[4]": {"tested_on": "Plasmodium-infected erythrocytes", "assay": "Fluorescence microscopy of PPIX accumulation in parasite-infected erythrocytes", "assay_type": "cell-based, Plasmodium falciparum", "conditions": "parasites grown in 200 μM ALA; epifluorescence microscope", "description": "(§1) Images of live or fixed parasites were acquired on an Axio Imager.M1 epifluorescence microscope (Carl Zeiss Microimaging, Inc.) equipped with a Hamamatsu ORCA-ER digital CCD camera and running Axiovision 4.8 software, as described previously (Sigala, P. A., et al., J. Biol. Chem. 287, 37793-37807, 2012). Live parasite nuclei were stained with 5 μM Hoechst 33342 added immediately prior to image acquisition. For photodynamic imaging studies, parasites were cultured in 200-500 μM ALA in the absence or presence of 50 μM succinylacetone for 6-12 hours prior to visualization. Hemozoin movement in parasite digestive vacuoles were imaged by acquiring 10-20 sequential frames at 1 second intervals on the bright-field channel. Images were cropped and superimposed in Adobe Photoshop and exported as movie files with a 0.1 second frame delay. […]\nThe present inventors investigated whether ALA treatment could serve as a probe of heme biosynthesis activity in Plasmodium-infected erythrocytes by enabling direct visualization of PPIX production and the cellular consequences of light activation. Untreated parasites imaged on an epifluorescence microscope display only background auto-fluorescence from hemozoin crystals in the parasite digestive vacuole (FIG. 2). […]"}, "[5]": {"tested_on": "hemozoin crystals in the parasite digestive vacuole", "assay": "Hemozoin dynamics in the digestive vacuole after light exposure", "assay_type": "cell-based, Plasmodium falciparum", "conditions": "200 μM ALA-treated parasites; fluorescence image acquisition overlapping PPIX excitation", "description": "as §1\nThe cytotoxic effects of light-activating PPIX were readily apparent by monitoring the motion of hemozoin crystals that dynamically tumble within the digestive vacuole of individual parasites. […] FIG. 3A depicts bright field and fluorescence microscopy images of untreated and 200 μM ALA-treated parasites. Fluorescence images were acquired with a Zeiss filter set 43 HE (excitation 537-562 nm, emission 570-640 nm). […]"}, "uninfected erythrocytes": {"tested_on": "uninfected erythrocytes", "assay": "Fluorescence microscopy of uninfected erythrocytes incubated in ALA", "assay_type": "cell-based", "conditions": "500 μM ALA", "description": "as §1, with “delay. Immunofluorescence images were acquired by fixing and staining parasites as previously described (Tonkin, C. J., et al., Mol. Biochem. Parasitol 137, 13-21, 2004; Ponpuak, M., et al., Mol. Microbiol. 63, 314-334, 2007). Electron microscopy images were obtained as previously described (Beck., J. R., et al., Nature 511, 592-595, 2014).” for “delay.”\nFIG. 7A depicts Bright field and fluorescence (Zeiss filter set 43 HE) images of uninfected erythrocytes incubated in 500 μM ALA before or after electroporation."}},
  "data": [
    {"smiles": "CC(=O)CC(=O)CCC(=O)O", "note": "[succinylacetone]", "values": [
      {"measurement": "rescue of photosensitivity of parasite growth in ALA", "setting": "[1]; 50 μM succinylacetone with 200 μM ALA, 2-minute light exposures", "value": "fully rescued"},
      {"measurement": "formation of 13C-labelled PPIX and coproporphyrin III from 13C-ALA", "setting": "[2]", "value": "fully blocked"},
      {"measurement": "rescue of cytotoxicity of the ALA/luminol/DHA combination", "setting": "[3]", "value": "could be rescued"}
    ]},
    {"smiles": "NCC(=O)CCC(=O)O", "note": "[ALA, 5-aminolevulinic acid]", "values": [
      {"measurement": "growth of cultures in the presence of light", "setting": "[1]; 200 μM ALA, 2-minute daily exposures to white light on days 0-2", "value": "strongly attenuated by light"},
      {"measurement": "blood smear examination of light-exposed cultures", "setting": "[1]; ALA-treated cultures, 2-minute daily white light", "value": "predominantly contained pyknotic parasites"},
      {"measurement": "photosensitivity of growth in ALA after apicoplast disruption", "setting": "[1]; IPP/doxycycline-treated 3D7 parasites, 200 μM ALA, 2-minute light exposures", "value": "remained fully photosensitive"},
      {"measurement": "photosensitivity of clonal growth in ALA", "setting": "[1]; ΔPBGD and ΔCPO 3D7 parasite lines, 200 μM ALA, 2-minute light exposures days 0-2", "value": "remained fully photosensitive"},
      {"measurement": "porphyrin (PPIX) fluorescence of infected erythrocytes", "setting": "[4]", "value": "bright red fluorescence"},
      {"measurement": "hemozoin dynamics after light", "setting": "[5]", "value": "rapidly ablated by light"},
      {"measurement": "porphyrin fluorescence of uninfected erythrocytes", "setting": "uninfected erythrocytes; after electroporation", "value": "robust intracellular porphyrin fluorescence"},
      {"measurement": "porphyrin fluorescence of uninfected erythrocytes", "setting": "uninfected erythrocytes; without electroporation", "value": "no detectable porphyrin fluorescence"}
    ]}
  ]
}
